Reference: patent publication US20250134901A1, “PHARMACEUTICAL COMPOSITION CONTAINING COMBINATION OF MELOXICAM AND RIZATRIPTAN AND PROCESS OF PREPARATION THEREOF” (Alembic Pharmaceuticals Limited, priority 2021, published 2025)
Values after ≈ are worked out from the molar mass of the structure shown. Read-outs that look alike come from different tables or passages of the source.

Assay: Solubility of meloxicam API in different pH buffered solutions
Type: physicochemical
Details: read-out: Meloxicam API Solubility (BCS)

solubility (aqueous buffer, pH 4.5 Acetate buffer): 30 µg/mL (≈ 85.4 µM)
solubility (aqueous buffer, pH 6.8 Phosphate Buffer): 2700 µg/mL (≈ 7680 µM)
solubility (aqueous buffer, pH 7.5 Phosphate buffer): 110 µg/mL (≈ 313 µM)
solubility (simulated gastric fluid, 0.01N HCl (pH 2.0)): 20 µg/mL (≈ 56.9 µM)
SMILES: Cc1cnc(NC(=O)C2=C(O)c3ccccc3S(=O)(=O)N2C)s1 [Meloxicam, 4-hydroxy-2-methyl-N-(5-methyl-2-thiazolyl)-2H-1,2-benzothiazine-3-carboxamide-1,1-dioxide]
